From patent US20160287712A1, “FATTY ACID NIACIN CONJUGATES” (priority 2013, published 2016) come the findings set out here.

A short description of data set [1]: Pharmacokinetics after oral administration to rats with jugular vein and portal vein catheters. The class given is in vivo, Male Sprague-Dawley rats. Conditions: rat. On the procedure: Pharmacokinetic studies were conducted in male Sprague-Dawley rats, with an approximate weight of 250-300 g at dose initiation. All animals were instrumented with a jugular vein catheter (JVC) and a portal vein catheter (PVC) to facilitate blood collections. Jugular and Portal vein catheterizations were conducted at Charles River Laboratories under protocols approved by the Institutional Animal Care and Use Committee (IACUC) of Charles River Lab (Approved PO 4122010).
Animals were anaesthetized with ketamine and xylazine administered intraperitoneally and provided buprenorphine subcutaneously. The skin overlying the scapula and over the right jugular vein were shaved and skin aseptically prepared. A 1.1.5 cm cranial-caudal incision, followed by blunt dissection was performed to expose the jugular vein, which was then catheterized using either a PU or blended catheter. After fixation of the catheter, it was flushed with sterile saline to verify patency. The distal end of the catheter was then tunneled subcutaneously to the dorsal scapular region where it was exteriorized. Catheter patency was verified again. The catheter was then locked with 50% heparinized dextrose solution. The exteriorized end of the catheter was sealed with a stainless steel plug. The skin incision was then closed with wound clips.
Animals were anaesthetized with ketamine and xylazine administered intraperitoneally. A mid-line incision 1-2 cm was made in the abdominal cavity and the portal vein was detached near the liver. To prevent bleeding, the portal vein was ligated temporarily as the catheter was inserted. The cathether (3.5 Fr polyurethane tube, Access™ technologies Inc.) was inserted immediately and fixed by a purse-string suture on the portal vein. The time to reperfusion was about 1 min after intercepted blood flow. This method for insertion of catheter can avoid the occlusion of the vessel. In addition, a catheter with trumpet-shaped opening was used to prevent the catheter from slipping out of the vessel with minimizing the effect of blood flow. Another end of the catheter was passed subcutaneously to the dorsal back of the neck and the laparotomy was closed in two layers, with a 4/0 silk blade to the muscle, and a surgical clip to close the skin.
Male Sprague-Dawley rats instrumented with jugular vein catheter and portal vein catheter were separated into groups of 4. The test compound was administered by oral gavage at dose of 30 mg/kg in a vehicle consisting of Tween (specifically Tween 80), Peceol, PEG400 (at a ratio of 40:50:10) along with 0.2% tocopherol and emulsified in water, with a water to oil ratio of 66:1 (the dose concentration was 6 mg/mL and the dose volume was 5 mL/kg). Whole blood (0.3 mL) was collected at both the jugular and portal vein at the following time points: 10, 20, 40 min, 1, 1.5, 2 and 4 hours post-dose. Blood samples were placed into tubes containing sodium heparin anticoagulant. Each whole blood sample was placed on ice until sample could be centrifuged at 2200×g at 5° C.±3° C. for 10 min to isolate plasma.
The amount of the various metabolites and parent compound present in the plasma samples were then analyzed by LC/MS/MS using an Agilent 6410 Triple Quadrupole with an ESI interface. The column used was a Phenomenex Gemini C6 Phenyl 110A 50×4.6 mm, 1.8 μM. The mobile phase used was water and methanol, each containing 0.1% formic acid. Data was further analyzed by WinNolin Software. For a given test compound, the following compounds were quantitated from the collected plasma samples: 1) test compound, 2) niacin linker, 3) linker-EPA, 4) niacin and 5) nicotinuric acid.
In order to quantitate each of these compounds in plasma, standard curves in blank plasma were generated using the appropriate internal standard (the final concentration range used were 8333 ng/mL, 2083 ng/mL, 521 ng/mL, 130.2 ng/mL, 32.5 ng/mL, 8.1 ng/mL, 2.0 ng/mL and 0.5 ng/mL). […]

Data set [2] can be described thus: Compound hydrolysis and tissue distribution: test compound and metabolites in liver after oral dosing for 3.5 days. The class given is in vivo, Male Sprague-Dawley rats. Conditions: for concentration at 4 h / Amount of Analyte: Niacin-linker Metabolite / Amount of Analyte: Linker-Fatty Acid Metabolite / Amount of Analyte: Nicotinuric Acid: male, Sprague-Dawley; for concentration at 4 h: liver homogenate, rat liver, 100 mg/kg oral gavage every 12 hours, 7 doses, 4 hours after last dose, read-out: Amount of Analyte: Intact Test Compound; for Amount of Analyte: Niacin-linker Metabolite / Amount of Analyte: Linker-Fatty Acid Metabolite / Amount of Analyte: Nicotinuric Acid: 4 h. On the procedure:
The amount of test compound and its metabolites in the liver provides information on distribution of such compounds within the rat, as well as information on stability of the test compound, such as resistance of the test compound to hydrolytic degradation. […] A test compound was administered to a single group of Male Sprague-Dawley rats. Each group contained 6 animals. […] Two additional animals were administered vehicle alone as controls. Animals were dosed every 12 hours for 3.5 days (7 doses total). Rats were fasted overnight after the PM dose on day 3 of study. On day 4 the rats were euthanized 4 hours after the last dose. Vehicle treated rats were also fasted prior to collection of tissue samples on day 4. At 4 hours after last dose, the livers were excised, rinsed and weight of each tissue recorded. Livers were snap frozen in liquid nitrogen and stored in 50 mL polypropylene conical centrifuge tubes at −80° C. Liver tissue was homogenized in PBS at a volume of 2 mL per gram of tissue. The amount of test compound and various metabolites of the test compound present in the liver homogenates were analyzed by LC/MS/MS as done in the previous example. […] In order to quantitate each of these compounds in the homogenates, standard curves in blank liver homogenates were generated using the appropriate internal standard.

[3] abbreviates: male, Sprague-Dawley, in vivo, po, 30 mg/kg.
[4] abbreviates: male, Sprague-Dawley, in vivo, po, 30 mg/kg, Peripheral AUClast, parent compound.
Where [5] appears, read: male, Sprague-Dawley, in vivo, po, 30 mg/kg, Peripheral Cmax, parent compound.
Setting [6] is: male, Sprague-Dawley, in vivo, po, 30 mg/kg, Portal AUClast, parent compound.
[7] abbreviates: male, Sprague-Dawley, in vivo, po, 30 mg/kg, Portal Cmax, parent compound.

Like-named read-outs stand apart in the source and are kept apart here.

On to `CC/C=C\C/C=C\C/C=C\C/C=C\C/C=C\C/C=C\CCC(=O)NCCNC(=O)c1cccnc1` [Compound I-7, N-(2-(4Z,7Z,10Z,13Z,16Z,19Z)-docosa-4,7,10,13,16,19-hexaenamidoethyl)nicotinamide, reference compound], for which the Cmax was 238 ng/mL in data set [1] (male, Sprague-Dawley, jugular vein plasma, po, 30 mg/kg, 30 mg/kg oral gavage, jugular vein plasma, read-out: Peripheral Cmax, parent compound) and 1850 ng/mL in data set [1] (male, Sprague-Dawley, portal vein plasma, po, 30 mg/kg, 30 mg/kg oral gavage, portal vein plasma, read-out: Portal Cmax, parent compound). In addition, the AUC(0-t) came to 353 ng·h/mL in data set [1] (male, Sprague-Dawley, jugular vein plasma, po, 30 mg/kg, 30 mg/kg oral gavage, jugular vein plasma, t=10 min to 4 hrs, read-out: Peripheral AUClast, parent compound) and 1460 ng·h/mL in data set [1] (male, Sprague-Dawley, portal vein plasma, po, 30 mg/kg, 30 mg/kg oral gavage, portal vein plasma, t=10 min to 4 hrs, read-out: Portal AUClast, parent compound). In data set [1] (30 mg/kg oral gavage), the “portal concentration of the parent compound compared to compounds I-15 and I-24” value is “lower”. Moreover, the concentration at 4 h in data set [2] came to 6.7 ng/g.
As for `CC/C=C\C/C=C\C/C=C\C/C=C\C/C=C\CCCC(=O)N[C@H]1CCN(C(=O)c2cccnc2)C1` [Compound I-23, (5Z,8Z,11Z,14Z,17Z)—N—((S)-1-nicotinoylpyrrolidin-3-yl)icosa-5,8,11,14,17-pentaenamide], the “ratio of Portal AUClast of Parent compound to Portal AUClast of Niacin-linker metabolite” value (shortened to “ratio … of Niacin-linker metabolite”) in data set [1] (setting [3]) amounted to 0.17. Besides, the AUC(0-t) turned out to be 60 ng·h/mL in data set [1] (setting [4]) and 1440 ng·h/mL in data set [1] (setting [6]). Further, the Cmax in data set [1] (setting [5]) was determined as 68 ng/mL; in data set [1] (setting [7]) it was 2600 ng/mL. Also, the “Amount of Analyte: Niacin-linker Metabolite” value in data set [2] (rat, in vivo, po, 100 mg/kg) was 2290 nanograms of analyte per gram of tissue homogenate.
Take `CC/C=C\C/C=C\C/C=C\C/C=C\C/C=C\CCCC(=O)N1CC[C@H](NC(=O)c2cccnc2)C1` [Compound I-24, N—((S)-1-((5Z,8Z,11Z,14Z,17Z)-icosa-5,8,11,14,17-pentaenoyl)pyrrolidin-3-yl)nicotinamide]: the “ratio … of Niacin-linker metabolite” value in data set [1] (setting [3]) was determined as 41. Moreover, in data set [1] (setting [4]), the AUC(0-t) came out at 964 ng·h/mL. The Cmax in data set [1] (setting [5]) came out at 565 ng/mL. Besides, in data set [1] (setting [6]), the AUC(0-t) stood at 6640 ng·h/mL. Also, the peak concentration (Cmax) in data set [1] (setting [7]) turned out to be 5320 ng/mL. In data set [2] (rat, in vivo, po, 100 mg/kg), the “Amount of Analyte: Linker-Fatty Acid Metabolite” value was 77.2 nanograms of analyte per gram of tissue homogenate, the “Amount of Analyte: Niacin-linker Metabolite” value is 2826 nanograms of analyte per gram of tissue homogenate and the “amount of intact test compound present in the liver compared to other compounds of Table 9” value is given as “significantly larger”.
With `CC/C=C\C/C=C\C/C=C\C/C=C\C/C=C\CCCC(=O)N(C)CCNC(=O)c1cccnc1` [Compound I-15, N-(2-((5Z,8Z,11Z,14Z,17Z)—N-methylicosa-5,8,11,14,17-pentaenamido)ethyl)nicotinamide], the AUC(0-t) was determined as 767 ng·h/mL in data set [1] (setting [4]) and 5060 ng·h/mL in data set [1] (setting [6]). For the same compound, the Cmax is 360 ng/mL in data set [1] (setting [5]) and 4520 ng/mL in data set [1] (setting [7]). Besides, in data set [2], the concentration at 4 h was 459 ng/g.
As to `CC/C=C\C/C=C\C/C=C\C/C=C\C/C=C\CCCC(=O)N[C@H]1CC[C@H](CNC(=O)c2cccnc2)CC1` [Compound I-41, N-(((1R,4R)-4-((5Z,8Z,11Z,14Z,17Z)-icosa-5,8,11,14,17-pentaenamido)cyclohexyl)methyl)nicotinamide], in data set [1] (in vivo, po, 30 mg/kg), the “Peripheral AUClast, parent compound” value came to 218 ng·h/mL; the “Portal AUClast, parent compound” value is given as 2,507 hr*ng/mL; the “ratio … of Niacin-linker metabolite” value was 1.3.
As for `CC/C=C\C/C=C\C/C=C\C/C=C\C/C=C\CCCC(=O)N1CCN(C(=O)c2cccnc2)CC1` [Compound I-13, (5Z,8Z,11Z,14Z,17Z)-1-(4-nicotinoylpiperazin-1-yl)icosa-5,8,11,14,17-pentaen-1-one], in data set [1] (setting [3]), the “ratio … of Niacin-linker metabolite” value amounted to 0.83. For the same compound, the values for the AUC(0-t) in data set [1] (setting [4]) and in data set [1] (setting [6]) were 142 ng·h/mL and 3560 ng·h/mL, respectively. For the same compound, the figures for the Cmax in data set [1] (setting [5]) and in data set [1] (setting [7]) were 80 ng/mL and 6070 ng/mL, respectively. In addition, the “Amount of Analyte: Linker-Fatty Acid Metabolite” value in data set [2] (rat, in vivo, po, 100 mg/kg) is listed as 15782 nanograms of analyte per gram of tissue homogenate. Besides, in data set [2] (rat, in vivo, po, 100 mg/kg), the “Amount of Analyte: Niacin-linker Metabolite” value is 2023 nanograms of analyte per gram of tissue homogenate. The “Amount of Analyte: Nicotinuric Acid” value in data set [2] (rat, in vivo, po, 100 mg/kg) is recorded as 15.1 nanograms of analyte per gram of tissue homogenate.
On to `CC/C=C\C/C=C\C/C=C\C/C=C\C/C=C\CCCC(=O)NCCNC(=O)c1cccnc1` [Compound I-8, N-(2-(5Z,8Z,11Z,14Z,17Z)-eicosa-5,8,11,14,17-pentaenamidoethyl)nicotinamide, reference compound], for which, in data set [1] (setting [3]), the “ratio … of Niacin-linker metabolite” value is listed as 0.06. Moreover, the AUC(0-t) came out at 81 ng·h/mL in data set [1] (setting [4]) and 662 ng·h/mL in data set [1] (setting [6]). The results for the maximum concentration (Cmax) in data set [1] (setting [5]) and in data set [1] (setting [7]) were 78 ng/mL and 756 ng/mL, respectively. Besides, the “Amount of Analyte: Niacin-linker Metabolite” value in data set [2] (rat, in vivo, po, 100 mg/kg) is on record as 2351 nanograms of analyte per gram of tissue homogenate. Also, the “Amount of Analyte: Nicotinuric Acid” value in data set [2] (rat, in vivo, po, 100 mg/kg) is given as 785 nanograms of analyte per gram of tissue homogenate.
